Laboratory results reported in patent US6861542B1, “Dimer amidopropyl dimethyl quaternary compounds” (SurfaTech Corporation, priority 2004, dated 2005).

Experiments:
[1] = Anionic compatibility test (titration of 10% sodium lauryl sulfate with 10% solids quat solution); assay type: physicochemical; details: 10% solids solution added to 100 ml of 10% sodium lauryl sulfate; for number of ml of solution A at the first point haze or precipitate was noted (end point): test stopped at 100 ml (fully compatible)
Procedure: The compounds evaluated were diluted to 10% solids with DI water before evaluation.
A solution of 10% b weight sodium lauryl sulfate was prepared. The sodium lauryl sulfate was obtained from Colonial Chemical in South Pittsburgh Tennessee.
Anionic Compatibility Test
100 ml of solution B was added to a 400 ml beaker. Solution A was slowly added until either a precipitate or haziness was noted. The number of ml of solution was recorded at the first point the haze of precipitate was noted. That point was noted as the end point. The higher the volume used to the end point the better the compatibility. The test is stopped at 100 ml at which point the product is considered fully compatible.

[2] = system: hair; assay: Half head conditioning study in commercial baby shampoo; assay type: in vivo; parameters: key: 1: no conditioning; 2: minimal conditioning; 3: measurable conditioning; 4: good conditioning; 5: excellent conditioning; details: 0.5% active by weight in commercial baby shampoo, 10 people, average rounded to nearest whole number
Procedure: The baby shampoo compounds were evaluated on 10 people with half head studies. The values reported were the average rounded to the nearest whole number. […] The scale used to evaluate was: [table]

| Compound | anionic compatibility rating [1] | number of ml of solution A at the first point haze or precipitate was noted (end point) [1] | Conditioning Value [2] |
| --- | --- | --- | --- |
| Cetyl trimethyl benzyl ammonium chloride [reference compound] | Very Incompatible | 0.5 mL | – |
| Dimer benzyl quat [Example 5] | Very | 88.2 mL | 5 |
| Dimer glyceryl quat [Example 3] | Fully | 100.0 mL | 4 |
| Hydrogenated dimer benzyl quat [Example 6] | – | – | 5 |
| Hydrogenated dimer glyceryl quat [Example 4] | Fully | 100.0 mL | 4 |

Continued, in another order:

| anionic compatibility rating [1] | number of ml of solution A at the first point haze or precipitate was noted (end point) [1] | Compound | Conditioning Value [2] |
| --- | --- | --- | --- |
| Very Incompatible | 1.0 mL | CCCCCCCCCCCCCCCCCC[N+](C)(C)Cc1ccccc1.[Cl-] [Stearyl dimethyl denzalkonium chloride, reference compound] | – |
| mildly compatible | 20.0 mL | CCCCCCCCCCCCCCCCCC(=O)NCCCN(C)C.Cl [Stearylamidopropyl dimethyl ammonium chloride, reference compound] | 1 |
| Compatible | 58.9 mL | Dimer tri-methyl quat [Example 7] | 4 |
| Compatible | 59.6 mL | Hydrogenated dimer tri-methyl [Example 8] | 4 |
